Source: US7517517B2 (Janssen Pharmaceutica N.V., priority 2002, dated 2009)
Marks after values point to notes of the source that are not given here.

How the values were obtained:
mGlu1 receptor = mGlu1 receptor (Rattus norvegicus, UniProt P23385); assay: [3H]Compound A binding and autoradiography on rat brain sections
Experimental: Tissue preparation. Male Wistar rats (200 g) were sacrificed by decapitation. Brains were immediately removed from the skull and were rapidly frozen in dry-ice-cooled 2-methylbutane (−40° C.). Brains were then stored at −70° C. until sectioning. Twenty-micrometer-thick sagittal sections were cut using a Leica C3050 cryostat microtome (Leica Microsystems, Wetzlar, Germany) and thaw-mounted on SuperFrost Plus microscope slides (Menzle-glaser, Germany). The sections were then kept at −70° C. until use.
Receptor autoradiography. Sections were thawed and dried under a stream of cold air, preincubated (3×5 min) in 50 mM Tris-HCl, 1.2 mM MgCl2, 2 mM CaCl2, 0.1% BSA pH 7.4 at room temperature. […] After the incubation, the excess of radioligand was washed off (3×5 min) in ice-cold buffer containing 50 mM Tris-HCl, 1.2 mM MgCl2 and 2 mM CaCl2, followed by a rapid dip in cold distilled water. The sections were dried under a stream of cold air and then exposed to [^3H]Hyperfilm (Amersham, UK) for 6 weeks at room temperature. The films were developed manually in Kodak D19 and fixed with Kodak Readymatic. Some sections were exposed to a Fuji Imaging Plate for 2 days at room temperature and scanned using a Fujix Bass 2000 phosphoimager.

rat mGlu6 receptor = molecular target: T1, rat mGlu6 receptor (Rattus norvegicus, UniProt P35349); assay: [3H]Compound A binding to membranes from CHO-dhfr− cells expressing the rat mGlu6 receptor; conditions: 20 nM [3H]Compound A, 40 μg membranes; Compound 135 as blanc
T1 construct: host or cells: CHO-dhfr- cells
T1 sequence (P35349 24-871): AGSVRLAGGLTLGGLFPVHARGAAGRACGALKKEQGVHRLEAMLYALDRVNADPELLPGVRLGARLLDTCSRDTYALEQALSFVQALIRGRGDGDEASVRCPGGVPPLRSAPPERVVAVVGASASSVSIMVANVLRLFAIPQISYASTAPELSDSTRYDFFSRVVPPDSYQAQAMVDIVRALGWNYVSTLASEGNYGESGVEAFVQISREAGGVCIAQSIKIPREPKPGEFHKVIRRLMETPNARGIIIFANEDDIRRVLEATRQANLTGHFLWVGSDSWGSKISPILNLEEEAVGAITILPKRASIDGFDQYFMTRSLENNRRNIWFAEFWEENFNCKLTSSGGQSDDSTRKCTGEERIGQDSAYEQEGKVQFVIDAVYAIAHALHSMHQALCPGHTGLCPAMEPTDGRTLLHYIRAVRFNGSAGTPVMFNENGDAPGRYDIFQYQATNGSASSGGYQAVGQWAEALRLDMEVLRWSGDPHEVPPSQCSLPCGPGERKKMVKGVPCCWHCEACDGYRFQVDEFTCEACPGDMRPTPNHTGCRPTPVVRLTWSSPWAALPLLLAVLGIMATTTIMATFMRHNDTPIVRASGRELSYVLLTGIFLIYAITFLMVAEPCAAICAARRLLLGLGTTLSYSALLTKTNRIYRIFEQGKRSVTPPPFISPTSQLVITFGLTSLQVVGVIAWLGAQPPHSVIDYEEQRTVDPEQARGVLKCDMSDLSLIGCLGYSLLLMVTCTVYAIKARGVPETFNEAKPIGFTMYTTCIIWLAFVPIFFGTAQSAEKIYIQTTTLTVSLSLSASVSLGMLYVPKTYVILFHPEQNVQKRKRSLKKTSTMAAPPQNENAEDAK
Experimental: (§1) Confluent cells were washed in ice-cold phosphate-buffered saline and stored at −20° C. until membrane preparation. After thawing, cells were suspended in 50 mM Tris-HCl, pH 7.4 and collected through centrifugation for 10 min at 23,500 g at 4° C. The cells were lysed in 10 mM hypotonic Tris-HCl, pH 7.4. After recentrifugation for 20 min at 30,000 g at 4° C., the pellet was homogenized with an Ultra Turrax homogenizer in 50 mM Tris-HCl, pH 7.4. Protein concentrations were measured by the Bio-Rad protein assay using bovine serum albumin as standard.
(§2) After thawing, the membranes were homogenized using an Ultra Turrax homogenizer and suspended in ice-cold binding buffer containing 50 mM Tris-HCl (pH 7.4), 1.2 mM MgCl2, 2 mM CaCl2. For [^3H]Compound A binding, 20 to 160 μg membrane protein and a final concentration of 20 nM [^3H]Compound A was used. As indicated in the results section, different blancs were used to define non-specific binding. Incubation time and temperature as well as filtration were as described for rat mGlu1a receptor CHO-dhfr^− membranes. Expression of rat mGlu2, -3, -5 and mGlu6 receptors was confirmed by specific binding of [^3H]LY341495 (mGlu2, -3 and -6) or [^3H]MPEP (mGlu5). For [^3H]LY341495 binding, 1 nM (mGlu2 and mGlu3) or 10 nM (mGlu6) [^3H]LY341495 was used. […] Assay mixtures were incubated for 30 min (mGlu2 and mGlu3) or 60 min (mGlu6) at 4° C. […]

rat mGlu5 receptor = molecular target: T2, rat mGlu5 receptor (Rattus norvegicus, UniProt P31424); assay: [3H]Compound A binding to membranes from CHO-dhfr− cells expressing the rat mGlu5 receptor; conditions: 20 nM [3H]Compound A, 40 μg membranes; Compound 135 as blanc
T2 construct: host or cells: CHO-dhfr- cells
Experimental: as §1, §2

rat mGlu1a receptor = molecular target: T3, rat mGlu1a receptor (Rattus norvegicus, UniProt P23385); assay: [3H]Compound A binding to rat mGlu1a receptor CHO-dhfr− membranes (saturation, kinetics, inhibition); conditions: for observed association rate constant (kob): 2.5 nM radioligand
T3 construct: host or cells: CHO-dhfr- cells
T3 sequence (P23385 19-1199): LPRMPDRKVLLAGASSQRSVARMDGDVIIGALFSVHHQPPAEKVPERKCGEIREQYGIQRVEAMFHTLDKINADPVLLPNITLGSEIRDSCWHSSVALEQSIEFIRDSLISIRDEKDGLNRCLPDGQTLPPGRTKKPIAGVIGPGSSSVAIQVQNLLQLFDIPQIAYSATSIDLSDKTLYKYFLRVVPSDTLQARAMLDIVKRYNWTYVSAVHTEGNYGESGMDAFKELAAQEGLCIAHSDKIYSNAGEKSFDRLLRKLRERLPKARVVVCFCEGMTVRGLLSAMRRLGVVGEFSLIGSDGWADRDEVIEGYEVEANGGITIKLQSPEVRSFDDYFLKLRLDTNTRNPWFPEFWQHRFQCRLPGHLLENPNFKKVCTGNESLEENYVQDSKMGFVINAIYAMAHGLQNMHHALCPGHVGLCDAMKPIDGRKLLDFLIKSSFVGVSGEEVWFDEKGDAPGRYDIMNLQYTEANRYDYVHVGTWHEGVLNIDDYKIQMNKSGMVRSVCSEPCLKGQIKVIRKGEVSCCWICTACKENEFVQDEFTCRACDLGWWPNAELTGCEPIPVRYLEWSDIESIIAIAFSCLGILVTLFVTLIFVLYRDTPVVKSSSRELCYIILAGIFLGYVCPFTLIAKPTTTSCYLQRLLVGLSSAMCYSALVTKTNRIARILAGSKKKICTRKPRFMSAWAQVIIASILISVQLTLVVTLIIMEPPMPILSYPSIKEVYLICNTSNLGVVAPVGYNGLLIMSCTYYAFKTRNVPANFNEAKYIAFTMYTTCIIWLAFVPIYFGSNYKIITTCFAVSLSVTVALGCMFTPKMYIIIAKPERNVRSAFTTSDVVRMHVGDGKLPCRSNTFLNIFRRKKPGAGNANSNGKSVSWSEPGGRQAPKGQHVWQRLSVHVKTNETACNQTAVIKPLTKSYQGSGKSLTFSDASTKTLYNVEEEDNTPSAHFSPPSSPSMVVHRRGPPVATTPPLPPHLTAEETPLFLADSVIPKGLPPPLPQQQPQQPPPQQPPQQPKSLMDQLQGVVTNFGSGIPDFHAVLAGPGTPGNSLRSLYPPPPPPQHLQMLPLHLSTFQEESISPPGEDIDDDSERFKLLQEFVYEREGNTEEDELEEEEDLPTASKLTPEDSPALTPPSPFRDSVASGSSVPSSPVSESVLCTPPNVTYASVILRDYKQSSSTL

rat mGlu2 receptor = molecular target: T4, rat mGlu2 receptor (Rattus norvegicus, UniProt P31421); assay: [3H]Compound A binding to membranes from CHO-dhfr− cells expressing the rat mGlu2 receptor; conditions: 20 nM [3H]Compound A, 40 μg membranes
T4 construct: host or cells: CHO-dhfr- cells
T4 sequence (P31421 19-872): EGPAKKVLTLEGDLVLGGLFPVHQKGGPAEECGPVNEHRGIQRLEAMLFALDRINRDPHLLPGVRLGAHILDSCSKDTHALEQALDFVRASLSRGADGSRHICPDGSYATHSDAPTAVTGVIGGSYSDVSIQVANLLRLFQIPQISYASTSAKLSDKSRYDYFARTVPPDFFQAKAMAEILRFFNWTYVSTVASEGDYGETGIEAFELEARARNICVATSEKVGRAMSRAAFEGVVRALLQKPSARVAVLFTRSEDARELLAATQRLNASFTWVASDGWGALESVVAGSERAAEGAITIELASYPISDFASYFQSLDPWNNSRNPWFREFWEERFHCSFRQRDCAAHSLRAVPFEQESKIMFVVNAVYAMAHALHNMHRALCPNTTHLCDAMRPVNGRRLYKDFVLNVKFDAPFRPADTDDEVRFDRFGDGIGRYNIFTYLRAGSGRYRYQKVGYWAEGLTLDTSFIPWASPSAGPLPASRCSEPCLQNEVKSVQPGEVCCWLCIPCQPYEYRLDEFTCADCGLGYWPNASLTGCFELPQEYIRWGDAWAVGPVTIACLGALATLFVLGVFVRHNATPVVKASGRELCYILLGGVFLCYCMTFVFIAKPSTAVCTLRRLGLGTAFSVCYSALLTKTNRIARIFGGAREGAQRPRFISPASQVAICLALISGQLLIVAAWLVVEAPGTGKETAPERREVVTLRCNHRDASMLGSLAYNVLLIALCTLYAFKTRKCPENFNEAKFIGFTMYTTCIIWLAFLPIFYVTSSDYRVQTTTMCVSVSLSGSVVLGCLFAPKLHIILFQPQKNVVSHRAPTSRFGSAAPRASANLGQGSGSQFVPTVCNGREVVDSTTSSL
Experimental: as §1, §2

rat mGlu3 receptor = molecular target: T5, rat mGlu3 receptor (Rattus norvegicus, UniProt P31422); assay: [3H]Compound A binding to membranes from CHO-dhfr− cells expressing the rat mGlu3 receptor; conditions: 20 nM [3H]Compound A, 40 μg membranes
T5 construct: host or cells: CHO-dhfr- cells
T5 sequence (P31422 23-879): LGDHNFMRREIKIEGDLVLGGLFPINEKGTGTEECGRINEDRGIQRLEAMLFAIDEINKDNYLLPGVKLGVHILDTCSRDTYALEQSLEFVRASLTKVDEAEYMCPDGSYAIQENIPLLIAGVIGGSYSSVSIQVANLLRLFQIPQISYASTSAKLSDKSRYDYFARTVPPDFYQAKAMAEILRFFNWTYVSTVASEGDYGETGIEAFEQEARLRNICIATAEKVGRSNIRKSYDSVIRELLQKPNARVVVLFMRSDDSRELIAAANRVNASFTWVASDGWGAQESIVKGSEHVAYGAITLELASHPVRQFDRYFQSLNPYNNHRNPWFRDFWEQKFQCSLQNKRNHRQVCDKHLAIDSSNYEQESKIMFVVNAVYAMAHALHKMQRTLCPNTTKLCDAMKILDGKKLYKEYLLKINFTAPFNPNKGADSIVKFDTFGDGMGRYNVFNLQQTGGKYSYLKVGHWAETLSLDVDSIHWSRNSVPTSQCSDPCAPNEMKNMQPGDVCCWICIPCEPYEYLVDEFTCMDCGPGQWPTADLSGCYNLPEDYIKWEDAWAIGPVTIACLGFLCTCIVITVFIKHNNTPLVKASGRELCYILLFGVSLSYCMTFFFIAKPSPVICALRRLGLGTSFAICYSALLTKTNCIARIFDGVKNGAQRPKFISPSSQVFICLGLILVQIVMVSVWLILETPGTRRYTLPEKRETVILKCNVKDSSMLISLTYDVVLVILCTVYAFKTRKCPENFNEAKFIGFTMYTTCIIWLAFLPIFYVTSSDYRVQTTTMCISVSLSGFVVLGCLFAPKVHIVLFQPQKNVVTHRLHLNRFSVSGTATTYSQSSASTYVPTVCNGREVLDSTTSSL
Experimental: as §1, §2

rat mGlu4 receptor = molecular target: T6, rat mGlu4 receptor (Rattus norvegicus, UniProt P31423); assay: [3H]Compound A binding to membranes from CHO-dhfr− cells expressing the rat mGlu4 receptor; conditions: 20 nM [3H]Compound A, 40 μg membranes
T6 construct: host or cells: CHO-dhfr- cells
T6 sequence (P31423 33-912): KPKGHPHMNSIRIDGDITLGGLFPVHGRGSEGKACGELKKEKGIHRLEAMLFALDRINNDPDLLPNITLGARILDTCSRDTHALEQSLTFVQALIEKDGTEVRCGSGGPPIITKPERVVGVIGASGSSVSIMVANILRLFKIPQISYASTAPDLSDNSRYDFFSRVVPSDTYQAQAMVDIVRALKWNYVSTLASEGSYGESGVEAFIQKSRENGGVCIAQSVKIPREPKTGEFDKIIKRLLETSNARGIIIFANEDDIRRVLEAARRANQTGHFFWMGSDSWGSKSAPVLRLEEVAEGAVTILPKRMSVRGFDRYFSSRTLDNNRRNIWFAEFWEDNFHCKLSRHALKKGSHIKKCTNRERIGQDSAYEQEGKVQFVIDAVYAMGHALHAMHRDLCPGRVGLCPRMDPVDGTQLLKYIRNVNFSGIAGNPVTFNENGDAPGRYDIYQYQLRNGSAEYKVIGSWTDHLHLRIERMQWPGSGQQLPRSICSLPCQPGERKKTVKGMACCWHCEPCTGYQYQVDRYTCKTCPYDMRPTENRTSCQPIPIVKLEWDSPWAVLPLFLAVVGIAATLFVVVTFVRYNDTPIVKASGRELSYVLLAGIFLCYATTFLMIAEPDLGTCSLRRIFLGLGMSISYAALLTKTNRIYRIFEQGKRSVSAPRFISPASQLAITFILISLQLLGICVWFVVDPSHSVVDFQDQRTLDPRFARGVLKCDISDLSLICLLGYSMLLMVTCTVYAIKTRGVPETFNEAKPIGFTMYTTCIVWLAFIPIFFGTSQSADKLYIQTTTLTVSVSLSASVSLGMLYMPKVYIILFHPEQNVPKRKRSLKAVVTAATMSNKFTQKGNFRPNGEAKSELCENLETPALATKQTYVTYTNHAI
Experimental: as §1, §2

[1] = [3H]Compound A saturation binding in presence of BAY 36-7620 (100 nM), mean ± SD, 3 experiments
[2] = [3H]Compound A saturation binding in presence of CPCCOEt (30 μM), mean ± SD, 3 experiments
[3] = [3H]Compound A saturation binding in presence of NPS 2390 (10 nM), mean ± SD, 3 experiments
[4] = [3H]Compound A saturation binding, control (absence of antagonist), mean ± SD, 3 experiments

specific binding in autoradiography (mGlu1 receptor; CA3 field and dentate gyrus of hippocampal formation, thalamus, olfactory tubercle, amygdala, substantia nigra reticulata): moderate signal | specific binding in autoradiography (mGlu1 receptor; cerebral cortex, caudate putamen, ventral pallidum, nucleus accumbens): lower labelling | specific binding in autoradiography (mGlu1 receptor; molecular layer of the cerebellum): Very high specific binding | SB (fmoles/mg protein), mGlu6 (rat mGlu6 receptor): 0 fmoles/mg protein | SB (fmoles/mg protein), mGlu5 (rat mGlu5 receptor): 38 fmoles/mg protein | SB (fmoles/mg protein), mGlu1 (rat mGlu1a receptor; 10 nM [3H]Compound A, 20 μg membranes, Compound 135 as blanc, mean ± SD of 3 experiments): 6057 fmoles/mg protein | specific binding as % of the total binding (rat mGlu1a receptor; 20 μg protein per assay, non-specific binding with 1 μM compound 135): ~92% | koff (rat mGlu1a receptor; 4° C.): 0.00208 s⁻¹ | specific binding after 2 min incubation as % of the quantity bound at equilibrium (rat mGlu1a receptor; 4° C.): about 70% | time to complete displacement after addition of excess compound 135 (rat mGlu1a receptor; 4° C.): approximately 45 min | observed association rate constant (kob) (rat mGlu1a receptor; 4° C.): 0.6285 min⁻¹ | kon (rat mGlu1a receptor; 4° C., read-out: kon (kob−koff/radioligand concentration) (converted)): 1.68e+06 M⁻¹ s⁻¹ | time to dissociation after addition of 1 μM compound 135 (rat mGlu1a receptor; 25° C.): ≤ 2 min | observed association rate constant (kob) (rat mGlu1a receptor; 25° C.): 2.571 min⁻¹ | observed association rate constant (kob) (rat mGlu1a receptor; 37° C.): 1.523 min⁻¹ | Bmax (rat mGlu1a receptor; [1]): 5872 ± 1018 fmoles/mg protein | Kd (rat mGlu1a receptor; [1]): 5.21 ± 1.2 nM | Bmax (rat mGlu1a receptor; [2]): 7009 ± 1231 fmoles/mg protein | Kd (rat mGlu1a receptor; [2]): 3.17 ± 0.9 nM | Bmax (rat mGlu1a receptor; [3]): 6887 ± 2804 fmoles/mg protein | Kd (rat mGlu1a receptor; [3]): 2.9 ± 0.2 nM | Bmax (rat mGlu1a receptor; [4]): 7284 ± 970 fmoles/mg protein | Kd (rat mGlu1a receptor; [4]): 0.73 ± 0.09 nM | incubation time to maximal binding (rat mGlu1a receptor; each incubation temperature (4, 25, 37° C.)): ≤ 5 min | decrease of specific binding at pH 6 (rat mGlu1a receptor; pH 6): 22% | more binding sites labelled than [3H]quisqualate (rat mGlu1a receptor; rat mGlu1a receptor CHO-dhfr− membranes): ~40% | Kd (rat mGlu1a receptor; saturation, 30 min incubation, n=3): 0.9 ± 0.14 nM | SB (fmoles/mg protein), mGlu2 (rat mGlu2 receptor; Compound 135 as blanc): 0 fmoles/mg protein | SB (fmoles/mg protein), mGlu2 (rat mGlu2 receptor; various blancs: 1 mM glutamate): 34^a fmoles/mg protein | SB (fmoles/mg protein), mGlu3 (rat mGlu3 receptor; Compound 135 as blanc): 0 fmoles/mg protein | SB (fmoles/mg protein), mGlu3 (rat mGlu3 receptor; various blancs: 1 mM glutamate): 0^a fmoles/mg protein | SB (fmoles/mg protein), mGlu4 (rat mGlu4 receptor; Compound 135 as blanc): 82 fmoles/mg protein | SB (fmoles/mg protein), mGlu4 (rat mGlu4 receptor; various blancs: 0.1 mM L-SOP): 57^b fmoles/mg protein
SMILES: [3H]c1ccc(CC(=O)c2ccc3nc4c(cc3c2)CCCO4)cc1 [[^3H]Compound A]
